In patent publication US8669206B2, “Composition and method for controlling arthropod pests” (Sumitomo Chemical Company, Limited, priority 2009, dated 2014):

Tests used:
Format in all cases: in vivo
Pseudaletia separata [1] = test: Test Example 1: control of Pseudaletia separata larvae on rice seedlings, treatment at the foot of the seedlings; settings: single compound, 5 mL/cup, larvae released after 2 days, counted after 3 days
Experimental: The compound I was dissolved in water to prepare an aqueous solution having a prescribed concentration. Also, the compound (1) (Coragen (registered trademark), product of DuPont) was diluted with water to prepare a chemical solution of the compound. These solutions were appropriately mixed to prepare a test mixed chemical solution having a prescribed concentration of the compound I and the compound (1).
(§1) A 90 mL plastic cup was filled with cultivation soil and 15 rice seeds were sown.
(§2) Two weeks after seedlings emerged, the foot of rice seedlings were treated with the test mixed chemical solution (5 mL/plastic cup). After 2 days, 30 of first-instar larvae of Pseudaletia separata were released per plastic cup. After 3 days, the number of surviving larvae was counted and the control rate was calculated using the equation A.
For comparison, tests were conducted in the same manner using a test aqueous solution having a prescribed concentration of the compound I, prepared by diluting an aqueous solution of the compound I with water, and a test aqueous solution having a prescribed concentration of the compound (1), prepared by diluting an aqueous solution of the compound (1) with water.
(§3) Control rate=100×(1−[(Ts/30)/(Cs/30)]) “Equation A” Ts and Cs represent the number of surviving larvae in a treated group and that in a non-treated group, respectively. Provided that, when the control rate is less than 0 (Ts>Cs), it is indicated by 0.

Pseudaletia separata [2] = test: Test Example 2: control of Pseudaletia separata larvae on rice seedlings, treatment at the foot of the seedlings; settings: single compound, 5 mL/cup, larvae released after 2 days, counted after 3 days
Experimental: as §3
(§4) The compound I was dissolved in water to prepare an aqueous solution having a prescribed concentration. Also, the compound (2) was dissolved in a mixed solution (44:1) of acetone and Tween 20, followed by dilution with water to prepare a chemical solution. These solutions were appropriately mixed to prepare a test mixed chemical solution having a prescribed concentration of the compound I and the compound (2).
as §1
as §2, with “A in the same manner as in Test Example 1.” for “A.”
(§5) For comparison, tests were conducted in the same manner using a test aqueous solution having a prescribed concentration of the compound I, prepared by diluting an aqueous solution of the compound I with water, and a test chemical solution having a prescribed concentration of the compound (2), prepared by dissolving the compound (2) in a mixed solution (1:9) of acetone and Tween 20, followed by dilution with water.

Pseudaletia separata [3] = test: Test Example 3: control of Pseudaletia separata larvae on rice seedlings treated with chemical solution and air dried; settings: single compound, 20 mL/cup, larvae released after air drying, counted after 3 days
Experimental: as §3
as §4, with “(3)” for “(2)”, “(3).” for “(2).”
A 90 mL plastic cup, was filled with cultivation soil and 15 rice seeds were sown.
as §2, with “the” for “the foot of”, “(20” for “(5”, “air dying,” for “2 days,”, “A in the same manner as in Test Example 1 and Test Example 2.” for “A.”
as §5, with “(3),” for “(2),”, “(3)” for “(2)”

CNC(=O)c1cc(Cl)cc(C)c1NC(=O)c1cc(Br)nn1-c1ncccc1Cl [Compound (1), chlorantraniliprole, reference compound]
Control rate (%) (Pseudaletia separata [1]; 1.0 ppm): 78% | Control rate (%) (Pseudaletia separata [1]; 3.0 ppm): 87%

CNC(=O)c1cc(C#N)cc(C)c1NC(=O)c1cc(Br)nn1-c1ncccc1Cl [Compound (2), cyantraniliprole, reference compound]
Control rate (%) (Pseudaletia separata [2]; 1.0 ppm): 59%

CC(NC(=O)c1cc(Cl)cc(Br)c1NC(=O)c1cc(Br)nn1-c1ncccc1Cl)C1CC1 (stereo not drawn) [Compound (3), N-[2-bromo-4-chloro-6-[[α-methyl-(cyclopropylmethyl)amino]carbonyl]-phenyl]-3-bromo-1-(3-chloro-2-pyridinyl)-1H-pyrazole-5-carboxamide]
Control rate (%) (Pseudaletia separata [3]; 0.3 ppm): 58%

O=C(O)CCC(=O)NCCc1ccccc1 [Compound I, 4-oxo-4-[(2-phenylethyl)amino]-butyric acid]
Control rate (%) (Pseudaletia separata [2]; 30 ppm): 0% | Control rate (%) (Pseudaletia separata [2]; 100 ppm): 0% | Control rate (%) (Pseudaletia separata [3]; 10 ppm): 0% | Control rate (%) (Pseudaletia separata [3]; 30 ppm): 0% | Control rate (%) (Pseudaletia separata [3]; 100 ppm): 0% | Control rate (%) (Pseudaletia separata [1]; 10 ppm): 0% | Control rate (%) (Pseudaletia separata [1]; 30 ppm): 0% | Control rate (%) (Pseudaletia separata [1]; 100 ppm): 0%
